Experiments:
[1] = Lipophilicity, log D of the compound at pH 7.4 by HPLC analysis; format: physicochemical; details: buffer
Orexin receptor type 2 = molecular target: T1, Orexin receptor type 2 (Homo sapiens, UniProt O43614); test: Antagonist activity at human recombinant OX2R expressed in CHOK1 cells assessed as inhibition of orexin A-induced intracellular Ca2+ release preincubated for 30 mins followed by orexin-A stimulation by Fluo-4AM dye based fluorescence analysis; format: functional, cell-based, CHO-K1
T1 sequence (O43614 whole entry): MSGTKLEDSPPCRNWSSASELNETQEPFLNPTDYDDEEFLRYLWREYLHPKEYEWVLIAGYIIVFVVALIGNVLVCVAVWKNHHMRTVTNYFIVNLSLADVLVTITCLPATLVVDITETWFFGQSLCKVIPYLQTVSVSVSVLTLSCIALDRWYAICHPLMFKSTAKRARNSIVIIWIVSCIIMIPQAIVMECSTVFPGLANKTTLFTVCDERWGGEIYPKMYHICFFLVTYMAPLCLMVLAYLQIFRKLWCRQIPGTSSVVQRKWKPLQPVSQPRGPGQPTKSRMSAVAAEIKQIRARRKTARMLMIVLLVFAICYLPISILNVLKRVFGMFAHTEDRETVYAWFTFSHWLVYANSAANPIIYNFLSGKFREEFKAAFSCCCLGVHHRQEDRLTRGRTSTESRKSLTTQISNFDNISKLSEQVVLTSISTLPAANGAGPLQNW

P-gp (ABCB1) = P-gp (ABCB1) (Homo sapiens, UniProt P08183); test: Substrate activity at P-gp (unknown origin) assessed as efflux ratio; format: ADME; details: not told
[2] = molecular target: T2, Orexin/Hypocretin receptor type 1 (Homo sapiens, UniProt O43613); test: Antagonist activity at human recombinant OX1R expressed in CHOK1 cells assessed as inhibition of orexin A-induced intracellular Ca2+ release preincubated for 30 mins followed by orexin-A stimulation by Fluo4-AM dye based fluorescence analysis; format: functional, cell-based, CHO-K1
T2 sequence (O43613 whole entry): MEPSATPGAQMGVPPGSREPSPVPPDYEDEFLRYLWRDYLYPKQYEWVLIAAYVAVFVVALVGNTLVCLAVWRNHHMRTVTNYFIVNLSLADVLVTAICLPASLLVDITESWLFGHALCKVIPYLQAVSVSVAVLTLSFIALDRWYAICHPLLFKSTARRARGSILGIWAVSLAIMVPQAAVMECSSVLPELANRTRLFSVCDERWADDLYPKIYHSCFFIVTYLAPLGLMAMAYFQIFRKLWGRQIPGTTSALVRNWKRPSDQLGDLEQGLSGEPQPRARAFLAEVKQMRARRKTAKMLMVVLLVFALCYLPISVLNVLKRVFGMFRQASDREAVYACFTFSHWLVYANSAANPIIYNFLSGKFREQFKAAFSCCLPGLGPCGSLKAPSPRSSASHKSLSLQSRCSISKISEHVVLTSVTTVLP

[3] = Drug metabolism in human liver microsomes incubated for 15 mins; format: ADME, Microsome; details: read-out: Drug metabolism
[4] = molecular target: Voltage-gated inwardly rectifying potassium channel KCNH2 (Homo sapiens, UniProt Q12809); test: Inhibition of human ERG
Cytochrome P450 3A4 = Cytochrome P450 3A4 (Homo sapiens, UniProt P08684); test: Time dependent inhibition of CYP3A4 (unknown origin); format: ADME
Chain of Cytochrome P450 3A4 (P08684 whole entry): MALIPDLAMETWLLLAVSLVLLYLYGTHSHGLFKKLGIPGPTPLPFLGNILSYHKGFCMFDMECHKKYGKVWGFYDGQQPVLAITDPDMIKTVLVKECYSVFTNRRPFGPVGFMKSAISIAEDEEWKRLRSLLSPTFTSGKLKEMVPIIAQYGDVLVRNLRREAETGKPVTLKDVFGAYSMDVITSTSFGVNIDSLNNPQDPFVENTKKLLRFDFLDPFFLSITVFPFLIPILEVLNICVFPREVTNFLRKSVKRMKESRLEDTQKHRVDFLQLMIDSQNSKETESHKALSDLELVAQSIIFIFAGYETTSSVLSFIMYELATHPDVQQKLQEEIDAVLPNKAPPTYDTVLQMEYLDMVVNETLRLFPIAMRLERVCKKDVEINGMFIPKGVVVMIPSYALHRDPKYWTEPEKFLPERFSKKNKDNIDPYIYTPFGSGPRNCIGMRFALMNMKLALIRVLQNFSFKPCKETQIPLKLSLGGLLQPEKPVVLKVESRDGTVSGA

Chain of P-gp (ABCB1) (P08183 whole entry): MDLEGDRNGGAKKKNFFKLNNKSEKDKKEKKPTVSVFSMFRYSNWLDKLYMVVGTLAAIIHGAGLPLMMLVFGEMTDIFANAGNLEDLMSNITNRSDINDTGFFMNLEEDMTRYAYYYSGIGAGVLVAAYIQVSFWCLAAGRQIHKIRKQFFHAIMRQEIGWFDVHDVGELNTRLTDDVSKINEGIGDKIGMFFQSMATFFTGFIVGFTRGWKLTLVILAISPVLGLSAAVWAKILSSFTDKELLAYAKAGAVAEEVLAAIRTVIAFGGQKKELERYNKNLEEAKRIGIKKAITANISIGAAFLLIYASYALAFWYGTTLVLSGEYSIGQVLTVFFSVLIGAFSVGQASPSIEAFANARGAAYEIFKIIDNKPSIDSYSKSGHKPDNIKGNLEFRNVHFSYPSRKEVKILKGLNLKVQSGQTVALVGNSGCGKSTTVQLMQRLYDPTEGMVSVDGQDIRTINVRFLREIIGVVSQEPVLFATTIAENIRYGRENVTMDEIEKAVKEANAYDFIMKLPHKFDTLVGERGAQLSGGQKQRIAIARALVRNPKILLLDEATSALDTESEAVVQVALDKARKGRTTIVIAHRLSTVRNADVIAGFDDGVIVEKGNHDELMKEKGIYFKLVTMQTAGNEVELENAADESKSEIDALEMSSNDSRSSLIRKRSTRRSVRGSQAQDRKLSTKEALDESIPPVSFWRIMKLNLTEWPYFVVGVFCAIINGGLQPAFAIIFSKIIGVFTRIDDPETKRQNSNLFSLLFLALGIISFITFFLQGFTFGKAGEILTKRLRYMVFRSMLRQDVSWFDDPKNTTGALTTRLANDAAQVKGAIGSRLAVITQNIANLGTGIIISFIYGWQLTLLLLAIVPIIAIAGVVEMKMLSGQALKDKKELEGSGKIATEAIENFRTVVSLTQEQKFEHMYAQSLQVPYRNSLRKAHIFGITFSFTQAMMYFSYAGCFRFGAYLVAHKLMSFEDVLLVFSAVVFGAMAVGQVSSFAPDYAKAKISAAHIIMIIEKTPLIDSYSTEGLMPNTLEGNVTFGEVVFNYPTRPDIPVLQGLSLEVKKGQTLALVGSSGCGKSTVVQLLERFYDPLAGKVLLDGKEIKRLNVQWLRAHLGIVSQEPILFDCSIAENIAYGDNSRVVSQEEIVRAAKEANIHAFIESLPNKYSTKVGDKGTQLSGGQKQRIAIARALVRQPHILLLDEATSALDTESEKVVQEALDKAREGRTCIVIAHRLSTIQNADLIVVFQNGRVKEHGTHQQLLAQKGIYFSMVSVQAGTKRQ
Chain of Voltage-gated inwardly rectifying potassium channel KCNH2 (Q12809 whole entry): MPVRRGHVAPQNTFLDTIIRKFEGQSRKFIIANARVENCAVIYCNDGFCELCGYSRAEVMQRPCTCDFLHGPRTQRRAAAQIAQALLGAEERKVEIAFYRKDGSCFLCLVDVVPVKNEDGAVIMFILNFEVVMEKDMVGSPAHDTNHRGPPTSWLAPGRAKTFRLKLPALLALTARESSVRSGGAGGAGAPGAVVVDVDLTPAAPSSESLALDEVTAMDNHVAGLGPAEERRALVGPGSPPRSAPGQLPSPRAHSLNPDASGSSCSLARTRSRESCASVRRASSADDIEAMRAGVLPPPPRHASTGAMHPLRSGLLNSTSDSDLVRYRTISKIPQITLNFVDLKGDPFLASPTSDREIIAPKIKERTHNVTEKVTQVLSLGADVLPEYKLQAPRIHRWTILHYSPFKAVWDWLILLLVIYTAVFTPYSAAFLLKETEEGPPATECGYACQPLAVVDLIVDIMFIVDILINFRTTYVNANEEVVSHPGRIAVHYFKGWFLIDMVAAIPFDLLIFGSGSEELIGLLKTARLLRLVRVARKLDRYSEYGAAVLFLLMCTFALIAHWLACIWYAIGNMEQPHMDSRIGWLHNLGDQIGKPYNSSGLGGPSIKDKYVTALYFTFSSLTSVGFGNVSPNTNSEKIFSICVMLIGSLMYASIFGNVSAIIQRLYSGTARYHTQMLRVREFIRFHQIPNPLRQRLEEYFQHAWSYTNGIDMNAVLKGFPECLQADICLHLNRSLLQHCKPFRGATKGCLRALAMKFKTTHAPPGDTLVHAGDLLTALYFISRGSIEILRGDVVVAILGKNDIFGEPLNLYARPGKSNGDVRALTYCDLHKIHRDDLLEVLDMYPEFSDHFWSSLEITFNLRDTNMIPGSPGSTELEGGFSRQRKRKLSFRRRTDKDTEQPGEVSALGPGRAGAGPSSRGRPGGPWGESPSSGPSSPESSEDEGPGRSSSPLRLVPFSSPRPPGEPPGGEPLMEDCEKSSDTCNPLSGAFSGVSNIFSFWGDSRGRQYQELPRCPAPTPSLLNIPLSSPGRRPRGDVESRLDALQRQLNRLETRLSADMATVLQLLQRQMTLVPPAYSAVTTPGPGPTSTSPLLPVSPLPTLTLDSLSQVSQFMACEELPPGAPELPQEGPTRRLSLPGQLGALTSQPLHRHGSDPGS

Compound | logD [1] | IC50 (Orexin receptor type 2) | efflux ratio (P-gp (ABCB1)) | IC50 [2] | metabolised at 0.25 h [3] | inhibition (INH) (Cytochrome P450 3A4) | inhibition (INH) [4]
Cc1ccc(-n2nccn2)c(C(=O)N2CCCO[C@H]2Cn2ncn(-c3ccc(F)cn3)c2=O)c1 | 2.52 | 5.4 nM | 2.88 | 85.5 nM | 15.6% | – | –
Cc1ccc(-n2nccn2)c(C(=O)N2COC[C@H]2Cn2ccc(-c3ccc(F)cn3)n2)c1 | 2.52 | 133 nM | 1.65 | 149 nM | 18% | – | –
Cc1ccc(-n2nccn2)c(C(=O)N2CSC[C@H]2Cn2ccc(-c3ccc(F)cn3)n2)c1 | 3.08 | 13.1 nM | 1.13 | 4.6 nM | 73.7% | – | –
Cc1ccc(-n2nccn2)c(C(=O)N2CCCO[C@H]2Cc2noc(-c3ccc(F)cn3)n2)c1 | 2.53 | 3.6 nM | 3.06 | 4.54 nM | 19.5% | – | –
Cc1ccc(-n2nccn2)c(C(=O)N2CCCO[C@H]2Cn2cc(-c3ccc(F)cn3)cn2)c1 | 2.38 | – | – | 5.39 nM | 15.8% | – | –
Cc1ccc(-n2nccn2)c(C(=O)N2CCS[C@H]2Cn2ccc(-c3ccc(F)cn3)n2)c1 | 3.51 | 2300 nM | 1.34 | 61.1 nM | 53% | – | –
CCN(CCn1ccc(-c2ccc(F)cn2)n1)C(=O)c1cc(C)ccc1-n1nccn1 | 2.78 | – | 1.51 | – | 20.2% | – | –
Cc1ccc(-n2nccn2)c(C(=O)N2CCO[C@@H]2Cn2ccc(-c3ccc(F)cn3)n2)c1 | 2.68 | – | – | 2690 nM | – | – | –
Cc1ccc(-n2nccn2)c(C(=O)N2CCCC[C@@H]2Cn2ccc(-c3ccc(F)cn3)n2)c1 | 2.95 | 52.4 nM | – | 20.8 nM | – | – | –
Cc1ccc(-n2nccn2)c(C(=O)N2CCO[C@H]2Cn2ccc(-c3ccc(F)cn3)n2)c1 | 2.67 | – | – | 8.08 nM | 15.7% | – | –
Cc1ccc(-n2nccn2)c(C(=O)N2CCC[C@@H]2Cn2ccc(-c3ccc(F)cn3)n2)c1 | 3.06 | 313 nM | – | 363 nM | – | – | –
Cc1ccc(-n2nccn2)c(C(=O)N2CCCO[C@H]2Cc2cnn(-c3ccc(F)cn3)c2)c1 | 3.03 | – | – | 3.98 nM | 29.7% | – | –
Cc1ccc(-n2nccn2)c(C(=O)N2CCCO[C@H]2Cn2cc(-c3ccc(F)cn3)nn2)c1 | 2.38 | 3.07 nM | 4.97 | 12.1 nM | 4.3% | – | –
Cc1ccc(-n2nccn2)c(C(=O)N2CCCO[C@@H]2Cn2ccc(-c3ccc(F)cn3)n2)c1 | 2.56 | 274 nM | – | 344 nM | – | – | –

More lines, in order of falling IC50 [2], values ahead:

logD [1] | IC50 (Orexin receptor type 2) | efflux ratio (P-gp (ABCB1)) | IC50 [2] | metabolised at 0.25 h [3] | inhibition (INH) (Cytochrome P450 3A4) | Compound | inhibition (INH) [4]
2.46 | 1.96 nM | 2.64 | 3.95 nM | 43.2% | – | O=C(c1cc(F)ccc1-n1nccn1)N1CCCO[C@H]1Cn1ccc(-c2ccc(F)cn2)n1 | –
2.3 | 2.62 nM | 3.25 | 3.76 nM | 14.6% | – | O=C(c1ccccc1-n1nccn1)N1CCCO[C@H]1Cn1ccc(-c2ccc(F)cn2)n1 | –
2.33 | 15 nM | 3.56 | 3.5 nM | 24.5% | – | Cc1ccc(-n2nccn2)c(C(=O)N2CCOC[C@H]2Cn2ccc(-c3ccc(F)cn3)n2)c1 | –
2.39 | 3.41 nM | 3.08 | 3.36 nM | 24.1% | – | Cc1ccc(-n2nccn2)c(C(=O)N2COCC[C@H]2Cn2ccc(-c3ccc(F)cn3)n2)c1 | –
3.08 | 3.15 nM | 1.96 | 3.3 nM | 37.2% | – | Cc1ccc(-n2nccn2)c(C(=O)N2CCC[C@H]2Cn2ccc(-c3ccc(F)cn3)n2)c1 | –
2.36 | 3.18 nM | 6.74 | 3.29 nM | 26.3% | – | Cc1ccc(-c2ncccn2)c(C(=O)N2CCCO[C@H]2Cn2ccc(-c3ccc(F)cn3)n2)c1 | –
2.3 | 4.58 nM | 5.36 | 3.22 nM | 28.9% | – | O=C(c1cc(F)ccc1-c1ncccn1)N1CCCO[C@H]1Cn1ccc(-c2ccc(F)cn2)n1 | –
2.8 | 1.88 nM | 1.38 | 2.9 nM | 16.4% | – | Cc1ccc(-n2nccn2)c(C(=O)N2CCCO[C@H]2Cn2ncc(-c3ccc(F)cn3)n2)c1 | –
2.96 | 1.64 nM | 1.63 | 2.27 nM | 51.9% | – | Cc1ccc(-n2nccn2)c(C(=O)N2CCCC[C@H]2Cn2ccc(-c3ccc(F)cn3)n2)c1 | –
3.15 | – | – | 2.21 nM | 24.8% | Active | Cc1ccc(-n2nccn2)c(C(=O)N2CCCO[C@H]2Cn2cc(-c3ccc(F)cc3)cn2)c1 | Active
